These results are taken from publication PMC9892719, “High-throughput screening method for discovering CatSper inhibitors using membrane depolarization caused by external calcium chelation and fluorescent cell barcoding” (Frontiers in Cell and Developmental Biology, 2023).

Structures are written as SMILES.

The assay addresses T1, CatSper (Mus musculus, UniProt A2ARP9+Q80W99+Q8BVN3+Q91ZR5).
T1 construct: gene Catsper1; native channel complex in live cauda epididymal sperm; pore of four homologous subunits CatSper 1-4 plus auxiliary subunits; with Cation channel sperm-associated auxiliary subunit beta; Cation channel sperm-associated auxiliary subunit gamma 2; Cation channel sperm-associated auxiliary subunit delta; Cation channel sperm-associated auxiliary subunit epsilon; Cation channel sperm-associated auxiliary subunit zeta; Cation channel sperm-associated targeting subunit tau; Cation channel sperm-associated auxiliary subunit TMEM262; Solute carrier organic anion transporter family member 6C1; Cation channel sperm-associated auxiliary subunit TMEM249
The experiment in a line: EGTA-induced Na+ depolarization of live sperm, DiSC3([…]) fluorescence, flow cytometry and spectrofluorometry. It is filed as cell-based. As to conditions: non-capacitated sperm, NC TYH medium pH 7.4, 3.5 mM EGTA (free Ca2+ 138 nM). For orientation: In flow cytometry, cells or beads pass a laser one at a time.

With `O=C(c1cccs1)c1no[n+]([O-])c1C(=O)c1cccs1` [HC-056456], the “block of EGTA-induced depolarization at 10 μM” value is given as “HC-056456 inhibits CatSper in a concentration-dependent manner”.
